Read-outs that look alike come from different tables or passages of the source.

Assay [1] deals with T1, CDK2/CycE (Homo sapiens, UniProt P24941).
T1 construct: purchased ProQinase GmbH (Freiburg, Germany); host or cells: insect cells (Sf9)
The assay is described as follows: CDK2/CycE kinase assay (TR-FRET, 2 mM ATP). The class given is biochemical. Conditions: 2 mM ATP (high ATP); median; read-out: CDK2/CyclinE, 2 mM ATP (high ATP), IC50 (median). The essentials:
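Biotin-peptide phosphorylation (0.75 µM substrate, 2 mM ATP final, 25 min, 22 °C) by Sf9-expressed GST-CDK2/GST-CycE, after a 15-min compound pre-binding step. Inhibition scaled between enzyme-free (100%) and uninhibited (0%) wells.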

Assay [2] concerns CAL-120, human breast adenocarcinoma cells. As to the kind of experiment: Proliferation assay CAL-120 (crystal violet, 4 days). It is filed as cell-based. To be noted: CAL-120 cells, median, read-out: Prolif-CAL-120, IC50-[mol/l] (median). The essentials: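 IC50 from a 4-parameter fit of crystal violet absorbance (595 nm), scaled between a day-0 plate (0%) and untreated wells (100%). Cells grown in 10% FCS medium were exposed to test substances at 0.01-10 µmol/L for 4 days, 0.1% DMSO final.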

The target of assay [3] is T2, CDK12 (nuclear staining in CAL-120 cells) (Homo sapiens, UniProt Q9NYV4).
T2 construct: endogenous in cells; host or cells: CAL-120 human breast cancer cells (DSMZ ACC 459)
T2 sequence (Q9NYV4 whole entry): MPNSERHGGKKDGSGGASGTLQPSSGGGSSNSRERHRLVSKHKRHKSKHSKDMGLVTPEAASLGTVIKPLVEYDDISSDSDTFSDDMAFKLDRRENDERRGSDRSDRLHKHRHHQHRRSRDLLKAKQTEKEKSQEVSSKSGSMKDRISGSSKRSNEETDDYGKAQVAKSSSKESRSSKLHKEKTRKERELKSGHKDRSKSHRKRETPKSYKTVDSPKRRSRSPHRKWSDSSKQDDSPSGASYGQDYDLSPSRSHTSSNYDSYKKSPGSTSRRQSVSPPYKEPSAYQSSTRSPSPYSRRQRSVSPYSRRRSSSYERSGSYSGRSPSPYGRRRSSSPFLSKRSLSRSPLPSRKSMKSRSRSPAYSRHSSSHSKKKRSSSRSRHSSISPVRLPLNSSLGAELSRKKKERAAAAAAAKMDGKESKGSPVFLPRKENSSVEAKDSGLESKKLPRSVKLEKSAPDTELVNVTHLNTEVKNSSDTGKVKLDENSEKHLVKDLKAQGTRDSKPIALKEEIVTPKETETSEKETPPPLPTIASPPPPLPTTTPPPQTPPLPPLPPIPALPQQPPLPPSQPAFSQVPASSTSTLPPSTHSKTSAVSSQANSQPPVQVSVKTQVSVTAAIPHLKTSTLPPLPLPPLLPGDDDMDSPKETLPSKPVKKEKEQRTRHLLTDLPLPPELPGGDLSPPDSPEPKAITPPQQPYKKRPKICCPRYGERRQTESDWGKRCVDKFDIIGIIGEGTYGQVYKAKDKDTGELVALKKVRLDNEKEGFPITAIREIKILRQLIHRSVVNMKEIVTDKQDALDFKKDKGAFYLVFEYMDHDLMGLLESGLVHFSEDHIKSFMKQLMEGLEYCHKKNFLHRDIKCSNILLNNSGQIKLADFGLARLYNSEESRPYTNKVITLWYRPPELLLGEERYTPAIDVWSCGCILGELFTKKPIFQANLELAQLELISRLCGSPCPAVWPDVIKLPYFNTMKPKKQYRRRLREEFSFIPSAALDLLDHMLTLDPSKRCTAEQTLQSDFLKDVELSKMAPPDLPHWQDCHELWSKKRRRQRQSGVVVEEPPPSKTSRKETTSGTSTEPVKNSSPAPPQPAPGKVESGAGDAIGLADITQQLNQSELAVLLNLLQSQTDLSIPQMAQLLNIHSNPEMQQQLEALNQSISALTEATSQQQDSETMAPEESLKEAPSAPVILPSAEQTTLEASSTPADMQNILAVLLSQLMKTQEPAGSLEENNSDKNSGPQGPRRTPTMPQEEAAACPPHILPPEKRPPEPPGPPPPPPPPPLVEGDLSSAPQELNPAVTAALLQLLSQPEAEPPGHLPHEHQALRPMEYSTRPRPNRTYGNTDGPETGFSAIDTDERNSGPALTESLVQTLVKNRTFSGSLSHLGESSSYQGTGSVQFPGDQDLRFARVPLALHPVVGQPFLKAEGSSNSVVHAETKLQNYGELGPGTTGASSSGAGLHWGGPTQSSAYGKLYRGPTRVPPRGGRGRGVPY
T2 sequence (O75909 whole entry partner): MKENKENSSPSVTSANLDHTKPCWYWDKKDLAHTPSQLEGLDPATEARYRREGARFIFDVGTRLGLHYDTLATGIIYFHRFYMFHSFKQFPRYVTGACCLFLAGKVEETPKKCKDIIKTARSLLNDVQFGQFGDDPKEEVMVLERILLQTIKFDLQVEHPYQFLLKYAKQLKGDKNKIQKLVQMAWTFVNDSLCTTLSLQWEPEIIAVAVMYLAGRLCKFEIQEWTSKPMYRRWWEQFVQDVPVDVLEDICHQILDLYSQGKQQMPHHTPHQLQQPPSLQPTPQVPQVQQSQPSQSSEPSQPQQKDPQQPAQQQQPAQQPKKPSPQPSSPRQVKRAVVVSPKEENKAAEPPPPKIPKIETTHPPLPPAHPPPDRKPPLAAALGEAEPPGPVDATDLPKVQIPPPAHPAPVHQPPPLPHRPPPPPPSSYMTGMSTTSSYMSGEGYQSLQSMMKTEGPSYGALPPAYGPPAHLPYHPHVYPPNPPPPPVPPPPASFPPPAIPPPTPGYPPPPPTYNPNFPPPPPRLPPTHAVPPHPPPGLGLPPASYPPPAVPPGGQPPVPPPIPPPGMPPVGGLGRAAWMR
The assay is described as follows: CDK12 nuclear protein level: immunofluorescence/high content analysis (CAL-120). It is filed as cell-based. Conditions: for DC50: CAL-120 cells, 24 h, immunofluorescence, 50% reduction of nuclear CDK12 staining intensity, median, read-out: CDK12 degradation IF, DC50- [mol/l] (median); for (IC50 CDK12 high ATP) to (Degradation DC50 CDK12) ratio: ratio of IC50 CDK12 high ATP kinase assay to DC50 CDK12 degradation (IF, CAL-120). In short, it runs like this:
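DC50 is the degrader concentration that halves nuclear CDK12 immunofluorescence relative to controls, measured by high-content imaging. CAL-120 cells were exposed to compound for 24 h at 37 °C before PFA fixation, and signal was normalized to DMSO and control wells.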

On to `Fc1cccc2[nH]c(CNc3nc(N4C[C@H]5CC[C@@H](C4)N5)nc4c(C5CC5)cnn34)nc12` [Example 296, 8-cyclopropyl-2-[(1R,5S)-3,8-diazabicyclo[3.2.1]octan-3-yl]-N-[(4-fluoro-1H-benzimidazol-2-yl)methyl]pyrazolo[1,5-a][1,3,5]triazin-4-amine], for which the IC50 in assay [1] stood at 5610 nM; in assay [2] (Homo sapiens, CAL-120, 96 h) it was 1.52 nM. In assay [3], the DC50 stood at 2.55 nM. The “(IC50 CDK12 high ATP) to (Degradation DC50 CDK12) ratio” value in assay [3] came out at 971.

With `Cc1ccnc2[nH]c(CNc3nc(N4CCOCC4)nc4c(Br)cnn34)nc12` [Example 20, 8-bromo-N-[(7-methyl-3H-imidazo[4,5-b]pyridin-2-yl)methyl]-2-(morpholin-4-yl)pyrazolo[1,5-a][1,3,5]triazin-4-amine], the IC50 in assay [1] came out at 1720 nM. In addition, the IC50 in assay [2] (Homo sapiens, CAL-120, 96 h) was 14.2 nM. In assay [3], the DC50 turned out to be 2.57 nM and the “(IC50 CDK12 high ATP) to (Degradation DC50 CDK12) ratio” value turned out to be 681.

As for `Fc1cccc2[nH]c(CNc3nc(N4CCOCC4)nc4c(CC(F)(F)F)cnn34)nc12` [Example 303, N-[(4-fluoro-1H-benzimidazol-2-yl)methyl]-2-(morpholin-4-yl)-8-(2,2,2-trifluoroethyl)pyrazolo[1,5-a][1,3,5]triazin-4-amine], the IC50 in assay [1] was above 20000 nM; in assay [2] (Homo sapiens, CAL-120, 96 h) it was 7.9 nM. For the same compound, the DC50 in assay [3] was 11 nM. Besides, in assay [3], the “(IC50 CDK12 high ATP) to (Degradation DC50 CDK12) ratio” value turned out to be 155.

`CN(CC(C)(C)O)c1nc(NCc2nc3c(F)cccc3[nH]2)n2ncc(C3CC3)c2n1` [Example 295, 1-[(8-cyclopropyl-4-{[(4-fluoro-1H-benzimidazol-2-yl)methyl]amino}pyrazolo[1,5-a][1,3,5]triazin-2-yl)(methyl)amino]-2-methylpropan-2-ol]: the IC50 in assay [1] is 2060 nM. For the same compound, the IC50 in assay [2] (Homo sapiens, CAL-120, 96 h) turned out to be 7.25 nM. For the same compound, in assay [3], the DC50 was 3.52 nM and the “(IC50 CDK12 high ATP) to (Degradation DC50 CDK12) ratio” value worked out at 235.

For the compound `c1ccc2[nH]c(CNc3nc(N4C[C@@H]5CCCN[C@@H]5C4)nc4c(C5CC5)cnn34)nc2c1` [Example 249, N-[(1H-benzimidazol-2-yl)methyl]-8-cyclopropyl-2-[(4aS,7aS)-octahydro-6H-pyrrolo[3,4-b]pyridin-6-yl]pyrazolo[1,5-a][1,3,5]triazin-4-amine], the IC50 was above 20000 nM in assay [1] and 4.28 nM in assay [2] (Homo sapiens, CAL-120, 96 h). Further, in assay [3], the DC50 came out at 6.48 nM. The “(IC50 CDK12 high ATP) to (Degradation DC50 CDK12) ratio” value in assay [3] is on record as above 2626.

As for `N[C@@H]1CN(c2nc(NCc3nc4ccccc4[nH]3)n3ncc(Br)c3n2)CC12CC2` [Example 251, 2-[(7S)-7-amino-5-azaspiro[2.4]heptan-5-yl]-N-[(1H-benzimidazol-2-yl)methyl]-8-bromopyrazolo[1,5-a][1,3,5]triazin-4-amine], the IC50 was 2580 nM in assay [1] and 6.6 nM in assay [2] (Homo sapiens, CAL-120, 96 h). For the same compound, the DC50 in assay [3] was found to be 0.145 nM. Also, the “(IC50 CDK12 high ATP) to (Degradation DC50 CDK12) ratio” value in assay [3] worked out at 6727.

Take `CN1CCN(c2nc(NCc3nc4cc(F)c(Cl)cc4[nH]3)n3ncc(C4CC4)c3n2)CC1` [Example 309, N-[(6-chloro-5-fluoro-1H-benzimidazol-2-yl)methyl]-8-cyclopropyl-2-(4-methylpiperazin-1-yl)pyrazolo[1,5-a][1,3,5]triazin-4-amine]: in assay [1], the IC50 was above 20000 nM. For the same compound, the IC50 in assay [2] (Homo sapiens, CAL-120, 96 h) turned out to be 4.11 nM. Also, in assay [3], the DC50 was determined as 8.53 nM and the “(IC50 CDK12 high ATP) to (Degradation DC50 CDK12) ratio” value was above 2346.

As for `CC1CN(C)CCN1c1nc(NCc2nc3ccccc3[nH]2)n2ncc(Br)c2n1` (single isomer, unassigned; enantiomer 1) [Example 260, N-(1H-benzimidazol-2-ylmethyl)-8-bromo-2-[(2R or S)-2,4-dimethylpiperazin-1-yl]pyrazolo[1,5-a][1,3,5]triazin-4-amine (Enantiomer 1)], the IC50 in assay [1] was determined as 2980 nM; in assay [2], 6.03 nM. The DC50 in assay [3] worked out at 1.78 nM. Moreover, the “(IC50 CDK12 high ATP) to (Degradation DC50 CDK12) ratio” value in assay [3] stood at 6819.

For the compound `FC(F)(F)Cc1cnn2c(NCc3nc4ccccc4[nH]3)nc(N3CCOCC3)nc12.O=CO` [Example 265, formic acid-N-[(1H-benzimidazol-2-yl)methyl]-2-(morpholin-4-yl)-8-(2,2,2-trifluoroethyl)pyrazolo[1,5-a][1,3,5]triazin-4-amine (1/1)], the IC50 in assay [1] is above 20000 nM. Besides, in assay [2] (Homo sapiens, CAL-120, 96 h), the IC50 is 35.4 nM. Also, in assay [3], the DC50 came to 7.23 nM and the “(IC50 CDK12 high ATP) to (Degradation DC50 CDK12) ratio” value was above 2310.

Regarding `Fc1ccc2[nH]c(CNc3nc(N4CCOCC4)nc4c(C5CCCC5)cnn34)nc2c1F` [Example 262, 8-cyclopentyl-N-[(4,5-difluoro-1H-benzimidazol-2-yl)methyl]-2-(morpholin-4-yl)pyrazolo[1,5-a][1,3,5]triazin-4-amine], the IC50 in assay [1] is above 20000 nM. Further, the IC50 in assay [2] (Homo sapiens, CAL-120, 96 h) amounted to 60.9 nM. In assay [3], the DC50 amounted to 11.4 nM and the “(IC50 CDK12 high ATP) to (Degradation DC50 CDK12) ratio” value was above 500.

On to `Fc1cc2nc(CNc3nc(N4CCOCC4)nc4c(C5CC5)cnn34)[nH]c2cc1F` [Example 318, 8-cyclopropyl-N-[(5,6-difluoro-1H-benzimidazol-2-yl)methyl]-2-(morpholin-4-yl)pyrazolo[1,5-a][1,3,5]triazin-4-amine], for which the IC50 is above 20000 nM in assay [1] and 2.8 nM in assay [2] (Homo sapiens, CAL-120, 96 h). Also, the DC50 in assay [3] amounted to 3.51 nM. Further, the “(IC50 CDK12 high ATP) to (Degradation DC50 CDK12) ratio” value in assay [3] is reported as 387.

In the case of `Fc1ccc2[nH]c(CNc3nc(N4CCOCC4)nc4c(C5CCC5)cnn34)nc2c1F` [Example 264, 8-cyclobutyl-N-[(4,5-difluoro-1H-benzimidazol-2-yl)methyl]-2-(morpholin-4-yl)pyrazolo[1,5-a][1,3,5]triazin-4-amine], in assay [1], the IC50 was above 20000 nM. Besides, the IC50 in assay [2] (Homo sapiens, CAL-120, 96 h) was found to be 8.7 nM. Moreover, in assay [3], the DC50 is 3.55 nM and the “(IC50 CDK12 high ATP) to (Degradation DC50 CDK12) ratio” value is given as 627.

For `Brc1cnn2c(NCc3nc4ccccc4[nH]3)nc(N3C[C@H]4CNC[C@H]4C3)nc12` [Example 283, N-[(1H-benzimidazol-2-yl)methyl]-8-bromo-2-[(3aR,6aS)-hexahydropyrrolo[3,4-c]pyrrol-2(1H)-yl]pyrazolo[1,5-a][1,3,5]triazin-4-amine], the IC50 in assay [1] was 7620 nM; in assay [2] (Homo sapiens, CAL-120, 96 h), 26.1 nM. The DC50 in assay [3] amounted to 6.97 nM. The “(IC50 CDK12 high ATP) to (Degradation DC50 CDK12) ratio” value in assay [3] worked out at 2630.

In the case of `NC1(C(F)(F)F)CCN(c2nc(NCc3nc4ccccc4[nH]3)n3ncc(Br)c3n2)C1` (stereo not drawn) [Example 266, 2-[3-amino-3-(trifluoromethyl)pyrrolidin-1-yl]-N-(1H-benzimidazol-2-ylmethyl)-8-bromo-pyrazolo[1,5-a][1,3,5]triazin-4-amine], the IC50 amounted to 2100 nM in assay [1] and 102 nM in assay [2] (Homo sapiens, CAL-120, 96 h). In addition, the DC50 in assay [3] is 52.4 nM. Further, the “(IC50 CDK12 high ATP) to (Degradation DC50 CDK12) ratio” value in assay [3] is given as 66.

As for `Fc1ccc2[nH]c(CNc3nc(N4CCOCC4)nc4c(CC(F)(F)F)cnn34)nc2c1F` [Example 268, N-[(4,5-difluoro-1H-benzimidazol-2-yl)methyl]-2-(morpholin-4-yl)-8-(2,2,2-trifluoroethyl)pyrazolo[1,5-a][1,3,5]triazin-4-amine], the IC50 in assay [1] was above 20000 nM. The IC50 in assay [2] (Homo sapiens, CAL-120, 96 h) came to 5.59 nM. In assay [3], the DC50 was determined as 1.9 nM and the “(IC50 CDK12 high ATP) to (Degradation DC50 CDK12) ratio” value came out at 1120.

As to `CNC1CCN(c2nc(NCc3nc4ccccc4[nH]3)n3ncc(Br)c3n2)CC1` [Example 272, N-[(1H-benzimidazol-2-yl)methyl]-8-bromo-2-[4-(methylamino)piperidin-1-yl]pyrazolo[1,5-a][1,3,5]triazin-4-amine], in assay [1], the IC50 turned out to be 16200 nM. Besides, in assay [2] (Homo sapiens, CAL-120, 96 h), the IC50 was 22.4 nM. In assay [3], the DC50 is 7.24 nM and the “(IC50 CDK12 high ATP) to (Degradation DC50 CDK12) ratio” value was above 2761.

Take `Fc1ccc2[nH]c(CNc3nc(N4CCOCC4)nc4c([C@@H]5CC5(F)F)cnn34)nc2c1` (single isomer, unassigned) [Example 315, 8-[(1R or S)-2,2-difluorocyclopropyl]-N-[(5-fluoro-1H-benzimidazol-2-yl)methyl]-2-(morpholin-4-yl)pyrazolo[1,5-a][1,3,5]triazin-4-amine]: in assay [1], the IC50 was above 20000 nM. In assay [2] (Homo sapiens, CAL-120, 96 h), the IC50 is 38.4 nM. For the same compound, in assay [3], the DC50 was 33.9 nM and the “(IC50 CDK12 high ATP) to (Degradation DC50 CDK12) ratio” value was above 581.

As for `Brc1cnn2c(NCc3nc4c([nH]3)CCCC4)nc(N3CCOCC3)nc12` [Example 21, 8-bromo-2-(morpholin-4-yl)-N-[(4,5,6,7-tetrahydro-1H-benzimidazol-2-yl)methyl]pyrazolo[1,5-a][1,3,5]triazin-4-amine], the IC50 in assay [1] stood at 2070 nM. Besides, the IC50 in assay [2] (Homo sapiens, CAL-120, 96 h) turned out to be 161 nM. Besides, in assay [3], the DC50 is 186 nM and the “(IC50 CDK12 high ATP) to (Degradation DC50 CDK12) ratio” value is given as 52.

For the origin of these results see US20230117034A1, “PYRAZOLOTRIAZINES” (Bayer Aktiengesellschaft, priority 2019, published 2023).
